The values below come from publication PMC10878344 (Journal of Enzyme Inhibition and Medicinal Chemistry, 2024).

Where only a bound is given, the exact number is not on record here.

Data set [1] addresses eeAChE (Electrophorus electricus, UniProt O42275). Nature of the data set: eeAChE inhibition, modified Ellman's method. The class given is biochemical, electric eel. In general terms: In Ellman's method for cholinesterases, released thiocholine reacts with DTNB.
For data set [2], the target named is eqBuChE (Equus caballus, UniProt P81908). Nature of the data set: eqBuChE inhibition, modified Ellman's method. The class given is biochemical, equine.
Data set [3] has as its target huBuChE (Homo sapiens, UniProt P06276). Nature of the data set: huBuChE inhibition, modified Ellman's method. The class given is biochemical.
Data set [4] deals with LPS-induced NO production of mouse microglia cells (BV-2). As to the kind of experiment: LPS-induced NO production in BV-2 microglia. Conditions: for NO production: 10 μM compound, LPS-induced BV-2 cells. The class given is cell-based.
The conditions of data set [5]: PAMPA-BBB reported values; ref [35],[36]; cited from earlier work.
The nature of data set [6]: PAMPA-BBB in vitro blood-brain barrier permeation assay. Conditions: for Papp at 10 h, 25 μg/mL: PAMPA, pH 7.4; for CNS (±): PAMPA-BBB classification from Pe. (In general: In PAMPA a lipid-coated filter parts donor from acceptor wells.)
The subject of data set [7] is scopolamine-induced cognitive impairment mouse model. Nature of the data set: Morris water maze test in scopolamine-induced cognitive impairment mouse model. The class given is in vivo, C57BL/6J mice. Conditions: 1 mg/kg oral once daily, scopolamine 5 mg/kg i.p.

Sequence of huBuChE (P06276 29-602): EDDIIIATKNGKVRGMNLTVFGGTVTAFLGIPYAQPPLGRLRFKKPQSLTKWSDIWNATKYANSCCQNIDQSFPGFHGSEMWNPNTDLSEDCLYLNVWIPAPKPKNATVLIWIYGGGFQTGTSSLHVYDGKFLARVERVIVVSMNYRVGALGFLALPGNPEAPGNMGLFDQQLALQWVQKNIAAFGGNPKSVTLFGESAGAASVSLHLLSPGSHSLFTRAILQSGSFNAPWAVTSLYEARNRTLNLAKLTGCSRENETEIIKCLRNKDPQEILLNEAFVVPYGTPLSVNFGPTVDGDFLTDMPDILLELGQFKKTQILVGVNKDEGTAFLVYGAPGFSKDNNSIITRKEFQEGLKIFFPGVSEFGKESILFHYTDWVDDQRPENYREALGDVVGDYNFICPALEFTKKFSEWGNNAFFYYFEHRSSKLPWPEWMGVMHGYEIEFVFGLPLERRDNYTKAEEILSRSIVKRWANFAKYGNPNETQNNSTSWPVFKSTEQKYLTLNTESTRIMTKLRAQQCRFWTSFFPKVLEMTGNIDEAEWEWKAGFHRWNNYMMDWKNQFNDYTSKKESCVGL
Sequence of eqBuChE (P81908 whole entry): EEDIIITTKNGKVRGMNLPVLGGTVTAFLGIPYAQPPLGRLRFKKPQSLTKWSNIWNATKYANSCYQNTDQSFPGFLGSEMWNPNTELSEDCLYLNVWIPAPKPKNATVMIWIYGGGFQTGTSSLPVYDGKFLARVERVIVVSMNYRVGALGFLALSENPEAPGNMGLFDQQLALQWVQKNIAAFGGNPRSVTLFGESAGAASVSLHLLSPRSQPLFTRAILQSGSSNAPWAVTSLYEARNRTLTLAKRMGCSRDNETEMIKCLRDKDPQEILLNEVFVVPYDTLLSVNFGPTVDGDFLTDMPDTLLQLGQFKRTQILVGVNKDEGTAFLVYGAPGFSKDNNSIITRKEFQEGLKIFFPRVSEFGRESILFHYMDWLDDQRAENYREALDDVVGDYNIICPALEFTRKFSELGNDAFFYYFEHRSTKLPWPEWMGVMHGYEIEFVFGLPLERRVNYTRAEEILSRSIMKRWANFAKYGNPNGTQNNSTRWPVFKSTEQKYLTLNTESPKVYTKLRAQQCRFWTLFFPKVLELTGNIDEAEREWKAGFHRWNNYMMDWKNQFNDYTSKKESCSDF
Sequence of eeAChE (O42275 24-633): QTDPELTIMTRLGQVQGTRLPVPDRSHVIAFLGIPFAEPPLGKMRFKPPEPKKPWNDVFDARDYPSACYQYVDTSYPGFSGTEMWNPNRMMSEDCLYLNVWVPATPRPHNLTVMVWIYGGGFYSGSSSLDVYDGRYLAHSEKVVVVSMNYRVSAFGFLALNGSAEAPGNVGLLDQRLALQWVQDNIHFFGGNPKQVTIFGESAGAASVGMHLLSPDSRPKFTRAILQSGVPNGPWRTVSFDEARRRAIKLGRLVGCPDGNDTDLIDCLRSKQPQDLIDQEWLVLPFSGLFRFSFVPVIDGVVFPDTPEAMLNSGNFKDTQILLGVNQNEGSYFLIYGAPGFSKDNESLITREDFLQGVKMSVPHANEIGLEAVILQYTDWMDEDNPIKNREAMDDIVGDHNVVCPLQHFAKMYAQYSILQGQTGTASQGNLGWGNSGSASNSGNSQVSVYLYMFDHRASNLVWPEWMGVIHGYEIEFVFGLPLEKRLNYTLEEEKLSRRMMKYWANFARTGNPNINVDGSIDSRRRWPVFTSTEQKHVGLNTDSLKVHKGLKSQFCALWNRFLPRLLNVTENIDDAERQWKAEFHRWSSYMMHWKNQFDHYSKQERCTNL

For `Cc1cc(=O)c(OCc2ccccc2)c(/C=C/c2cccc(OC(=O)N(C)C)c2)o1` [Compound 7a, (E)-3–(2-(3-(benzyloxy)-6-methyl-4-oxo-4H-pyran-2-yl)vinyl)phenyl dimethylcarbamate], the results for the IC50 in data set [1], in data set [2] and in data set [3] were over 20 µM, 24.6 ± 6.66 nM and 99.4 ± 20.6 nM, respectively. In addition, in data set [4], the NO production is given as 90.31%.

As for `CCN(C)C(=O)Oc1cccc(/C=C/c2oc(C)cc(=O)c2OCc2ccccc2)c1` [Compound 7b, (E)-3–(2-(3-(benzyloxy)-6-methyl-4-oxo-4H-pyran-2-yl)vinyl)phenyl ethyl(methyl)carbamate], the IC50 is over 20 µM in data set [1], 157 ± 13.3 nM in data set [2] and 631 ± 155 nM in data set [3].

Regarding `CCN(CC)C(=O)Oc1cccc(/C=C/c2oc(C)cc(=O)c2OCc2ccccc2)c1` [Compound 7c, (E)-3–(2-(3-(benzyloxy)-6-methyl-4-oxo-4H-pyran-2-yl)vinyl)phenyl diethylcarbamate], the IC50 in data set [1] is over 20 µM; in data set [2], 652 ± 44.5 nM; in data set [3], over 10000 nM.

Take `Cc1cc(=O)c(OCc2ccccc2)c(/C=C/c2cccc(OC(=O)N(C(C)C)C(C)C)c2)o1` [Compound 7d, (E)-3–(2-(3-(benzyloxy)-6-methyl-4-oxo-4H-pyran-2-yl)vinyl)phenyl diisopropylcarbamate]: the results for the IC50 in data set [1], in data set [2] and in data set [3] were over 20 µM, 8530 ± 314 nM and over 10000 nM, respectively. This molecule showed an NO production in data set [4] of 80.01%.

For the molecule `Cc1cc(=O)c(OCc2ccccc2)c(/C=C/c2cccc(OC(=O)N(c3ccccc3)c3ccccc3)c2)o1` [Compound 7e, (E)-3–(2-(3-(benzyloxy)-6-methyl-4-oxo-4H-pyran-2-yl)vinyl)phenyl diphenylcarbamate], the figures for the IC50 in data set [1], in data set [2] and in data set [3] were over 20 µM, over 10000 nM and over 10000 nM, respectively. This molecule also gave an NO production in data set [4] of 106.16%.

With `Cc1cc(=O)c(OCc2ccccc2)c(/C=C/c2cccc(OC(=O)N3CCCC3)c2)o1` [Compound 7f, (E)-3–(2-(3-(benzyloxy)-6-methyl-4-oxo-4H-pyran-2-yl)vinyl)phenyl pyrrolidine-1-carboxylate], the IC50 is over 20 µM in data set [1], 31.4 ± 5.97 nM in data set [2] and 156 ± 36 nM in data set [3].

Regarding `Cc1cc(=O)c(OCc2ccccc2)c(/C=C/c2cccc(OC(=O)N3CCCCC3)c2)o1` [Compound 7g, (E)-3–(2-(3-(benzyloxy)-6-methyl-4-oxo-4H-pyran-2-yl)vinyl)phenyl piperidine-1-carboxylate], the IC50 was over 20 µM in data set [1], 15.3 ± 0.75 nM in data set [2] and 38.7 ± 2.08 nM in data set [3]. The molecule further gave an NO production in data set [4] of 90.09%.

`Cc1cc(=O)c(OCc2ccccc2)c(/C=C/c2cccc(OC(=O)N3CCOCC3)c2)o1` [Compound 7h, (E)-3–(2-(3-(benzyloxy)-6-methyl-4-oxo-4H-pyran-2-yl)vinyl)phenyl morpholine-4-carboxylate]: the IC50 was over 20 µM in data set [1], 72.6 ± 9.39 nM in data set [2] and over 10000 nM in data set [3].

For the molecule `Cc1cc(=O)c(OCc2ccccc2)c(/C=C/c2cccc(OC(=O)N3CCC(Cc4ccccc4)CC3)c2)o1` [Compound 7i, (E)-3–(2-(3-(benzyloxy)-6-methyl-4-oxo-4H-pyran-2-yl)vinyl)phenyl 4-benzylpiperidine-1-carboxylate], the figures for the IC50 in data set [1], in data set [2] and in data set [3] were over 20 µM, 75.2 ± 11.9 nM and 374 ± 6.45 nM, respectively.

`Cc1cc(=O)c(OCc2ccccc2)c(/C=C/c2cccc(OC(=O)N3CCN(Cc4ccccc4)CC3)c2)o1` [Compound 7j, (E)-3–(2-(3-(benzyloxy)-6-methyl-4-oxo-4H-pyran-2-yl)vinyl)phenyl 4-benzylpiperazine-1-carboxylate]: the concentration for half-maximal inhibition (IC50) in data set [1] was over 20 µM; in data set [2], 31.8 ± 6.92 nM; in data set [3], 733 ± 59.8 nM.

For the molecule `Cc1cc(=O)c(OCc2ccccc2)c(/C=C/c2cccc(OCC(=O)N3CCCCC3)c2)o1` [Compound 7k, (E)-3-(benzyloxy)-6-methyl-2–(3–(2-oxo-2-(piperidin-1-yl)ethoxy)styryl)-4H-pyran-4-one], the IC50 in data set [1] is over 20 µM; in data set [2], 1430 ± 131 nM; in data set [3], 486 ± 46.2 nM. The NO production in data set [4] came to 64.59%. For the same molecule, the inhibition at 10 µM in data set [4] (Mus musculus, BV-2, read-out: NO inhibition) amounted to 35.4%.

Turning to `O=C(Oc1cccc(/C=C/c2occc(=O)c2OCc2ccccc2)c1)N1CCCCC1` [Compound 7l, (E)-3–(2-(3-(benzyloxy)-4-oxo-4H-pyran-2-yl)vinyl)phenyl piperidine-1-carboxylate], the results for the IC50 in data set [1], in data set [2] and in data set [3] were over 20 µM, 8.1 ± 2.75 nM and 6.93 ± 1.57 nM, respectively.

As to `O=C(Oc1cccc(/C=C/c2oc(CO)cc(=O)c2OCc2ccccc2)c1)N1CCCCC1` [Compound 7m, (E)-3–(2-(3-(benzyloxy)-6-(hydroxymethyl)-4-oxo-4H-pyran-2-yl)vinyl)phenyl piperidine-1-carboxylate], the IC50 in data set [1] was over 20 µM; in data set [2] it was 5.22 ± 1.72 nM; in data set [3] it was 16.5 ± 5.44 nM. The NO production in data set [4] is 76.97%.

For the molecule `Cc1cc(=O)c(OCc2ccc3ccccc3c2)c(/C=C/c2cccc(OC(=O)N3CCCCC3)c2)o1` [Compound 7n, (E)-3–(2-(6-methyl-3-(naphthalen-2-ylmethoxy)-4-oxo-4H-pyran-2-yl)vinyl)phenyl piperidine-1-carboxylate], the figures for the IC50 in data set [1], in data set [2] and in data set [3] were over 20 µM, 18.9 ± 5.98 nM and 39.4 ± 4.2 nM, respectively.

Turning to `Cc1cc(=O)c(OCc2ccc(-c3ccccc3)cc2)c(/C=C/c2cccc(OC(=O)N3CCCCC3)c2)o1` [Compound 7o, (E)-3–(2-(3-([1,1′-biphenyl]-4-ylmethoxy)-6-methyl-4-oxo-4H-pyran-2-yl)vinyl)phenyl piperidine-1-carboxylate], the IC50 is over 20 µM in data set [1], 19.2 ± 1.91 nM in data set [2] and 37.9 ± 5.37 nM in data set [3].

For the molecule `Cc1cc(=O)c(OCc2ccccc2)c(-c2ccc3ccc(OC(=O)N4CCCCC4)cc3c2)o1` [Compound 7q, 7–(3-(Benzyloxy)-6-methyl-4-oxo-4H-pyran-2-yl)naphthalen-2-yl piperidine-1-carboxylate], the IC50 in data set [1] is over 20 µM; in data set [2] it was 41.7 ± 11.3 nM; in data set [3], 230 ± 29.9 nM.

Turning to `Cc1cc(=O)c(OCc2ccccc2)c(-c2ccc(-c3cccc(OC(=O)N4CCCCC4)c3)cc2)o1` [Compound 7r, 4′-(3-(Benzyloxy)-6-methyl-4-oxo-4H-pyran-2-yl)-[1,1′-biphenyl]-3-yl piperidine-1-carboxylate], the IC50 was over 20 µM in data set [1], 94.3 ± 20.9 nM in data set [2] and 651 ± 157 nM in data set [3].

Take `Cc1cc(=O)c(OCc2ccccc2)c(CCc2cccc(OC(=O)N3CCCCC3)c2)o1` [Compound 7s, 3–(2-(3-(Benzyloxy)-6-methyl-4-oxo-4H-pyran-2-yl)ethyl)phenyl piperidine-1-carboxylate]: the IC50 is over 20 µM in data set [1], 12.3 ± 3.12 nM in data set [2] and 11 ± 1.7 nM in data set [3]. Also, in data set [4], the NO production is listed as 77.77%.

Take `CCn1cc(C(=O)O)c(=O)c2cc(F)c(N3CCNCC3)cc21` [Norfloxacin]: in data set [5], the “Pe(ref.)” value was 1e-07 cm/s. Further, in data set [6], the Papp at 10 h, 25 μg/mL was 0.18 ± 0.03 ×10⁻⁶ cm/s and the “CNS (±)” value is “CNS - (CNS -: (low BBB permeability), Pe (×10^−6 cm/s) < 2.03)”.

Consider `CN1C(C(=O)Nc2ccccn2)=C(O)c2ccccc2S1(=O)=O` [Piroxicam], for which, in data set [5], the “Pe(ref.)” value is 2.5e-06 cm/s. In addition, in data set [6], the Papp at 10 h, 25 μg/mL was determined as 2.16 ± 0.04 ×10⁻⁶ cm/s and the “CNS (±)” value is “CNS +/-”.

As for `CCN(C)C(=O)Oc1cccc([C@H](C)N(C)C)c1` [Rivastigmine, reference compound], in data set [7] (fifth day of training trials), the “escape latency to the platform” value turned out to be 31.15 s. In data set [7] (last day without platform), the “number of crossing the platform” value was found to be 3.0 times.

Take `CN1C(C(=O)Nc2ccccn2)=C(O)c2sccc2S1(=O)=O` [Tenoxicam]: the “Pe(ref.)” value in data set [5] is 1e-07 cm/s. Moreover, in data set [6], the Papp at 10 h, 25 μg/mL came out at 0.35 ± 0.16 ×10⁻⁶ cm/s and the “CNS (±)” value is “CNS - (CNS -: (low BBB permeability), Pe (×10^−6 cm/s) < 2.03)”.

As to `Cn1c(=O)c2[nH]cnc2n(C)c1=O` [Theophylline], the “Pe(ref.)” value in data set [5] is recorded as 0.12 ± 0.01 ×10^−6 cm/s.

By IC50 is commonly meant the concentration that inhibits the measured activity by half. A lower IC50 goes with greater potency in that assay. For orientation: inhibition means the percentage by which the read-out fell short of the control. As usually defined, the Papp is a coefficient for how fast a substance crosses the barrier.
